Paper PMC10687071 (The Journal of Biological Chemistry, 2023)
Substitutions are numbered along the chain they refer to. Several values for one entry are separate records, joined by “and”; a condition that tells them apart may be missing. Equal entries are not always repeated.

Tests used:
[1] = target: T1, D39G mutant EAG1 channels (Mus musculus, UniProt Q60603, D39G); experiment: TEVC recording, imipramine inhibition, D39G mutant; assay type: cell-based; conditions: D39G mutant EAG1 channel, +50 mV
T1 construct: expressed in transfected cells; host or cells: Xenopus laevis oocytes injected with cRNA
T1 sequence (Q60603 1-989 D39G): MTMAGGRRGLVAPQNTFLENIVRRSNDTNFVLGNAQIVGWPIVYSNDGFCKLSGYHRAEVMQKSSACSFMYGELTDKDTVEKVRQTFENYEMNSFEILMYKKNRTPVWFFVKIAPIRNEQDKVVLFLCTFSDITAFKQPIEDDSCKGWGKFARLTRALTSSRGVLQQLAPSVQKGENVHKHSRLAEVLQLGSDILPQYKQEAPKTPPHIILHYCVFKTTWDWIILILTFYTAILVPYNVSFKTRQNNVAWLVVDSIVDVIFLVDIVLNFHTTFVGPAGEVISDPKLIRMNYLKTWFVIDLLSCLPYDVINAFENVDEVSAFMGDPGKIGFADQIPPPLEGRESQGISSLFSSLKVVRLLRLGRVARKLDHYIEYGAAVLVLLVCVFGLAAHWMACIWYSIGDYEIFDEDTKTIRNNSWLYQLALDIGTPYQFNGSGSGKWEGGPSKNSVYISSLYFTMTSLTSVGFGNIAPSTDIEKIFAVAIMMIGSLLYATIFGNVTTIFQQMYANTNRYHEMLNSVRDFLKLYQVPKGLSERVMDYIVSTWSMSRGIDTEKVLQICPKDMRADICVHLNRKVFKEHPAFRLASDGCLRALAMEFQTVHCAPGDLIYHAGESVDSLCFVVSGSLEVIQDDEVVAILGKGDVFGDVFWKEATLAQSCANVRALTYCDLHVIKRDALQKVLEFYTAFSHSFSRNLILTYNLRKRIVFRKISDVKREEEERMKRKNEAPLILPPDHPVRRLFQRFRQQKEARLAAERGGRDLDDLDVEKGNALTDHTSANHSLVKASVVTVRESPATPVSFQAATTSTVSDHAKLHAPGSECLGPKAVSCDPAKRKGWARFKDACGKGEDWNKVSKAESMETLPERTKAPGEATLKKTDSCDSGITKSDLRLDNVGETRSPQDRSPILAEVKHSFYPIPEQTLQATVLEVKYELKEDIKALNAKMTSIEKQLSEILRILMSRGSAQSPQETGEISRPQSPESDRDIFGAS
Description: (§1) The cDNA encoding wild-type (WT) mouse EAG1 channels in pGH19 vector was kindly provided by G. Robertson (University of Wisconsin-Madison, Madison, WI). The mutant ΔPAS EAG1 channel in pGH19 with the deletion of the PAS domain residues 2 to 130 was generated by Bio Basic Inc and verified by DNA sequencing (Genewiz). Mutant EAG1 channels with single amino acid substitutions were generated by Genewiz and verified by DNA sequencing. cRNA was transcribed using the T7 mMessage mMachine kit (Thermo Fisher Scientific). Defolliculated Xenopus laevis oocytes were purchased from Ecocyte Bioscience or Xenopus1 and injected with the cRNA using a Nanoinject II oocyte injector (Drummond).
(§2) For EAG1 current recordings, oocytes were placed into a handmade chamber containing a bath solution for the current recording. The currents were recorded using a TEVC technique with OC-725C amplifier (Warner Instruments) and pClamp11 software (Molecular Devices). The signals were digitized using Digidata 1550 (Molecular Devices). Patch pipettes were pulled from borosilicate glass and had resistances of 0.7 to 1.5 MΩ. The recording (bath) solution contained 96 mM NaCl, 4 mM KCl, 0.1 mM CaCl2, 1.8 mM MgCl2, and 5 mM HEPES, pH 7.5. The pipette solution contained 3 M KCl. […]

[2] = target: T2, R84G mutant EAG1 channels (Mus musculus, UniProt Q60603, R84G); experiment: TEVC recording, imipramine inhibition, R84G mutant; assay type: cell-based; conditions: R84G mutant EAG1 channel, +50 mV
T2 construct: expressed in transfected cells; host or cells: Xenopus laevis oocytes injected with cRNA
T2 sequence (Q60603 1-989 R84G): T1 sequence (Q60603 1-989 D39G) with G39D, R84G
Description: as §1, §2

[3] = can reach up; cited from earlier work

IC50 [1]: 79.6 ± 5.4 µM
IC50 [2]: 92.6 ± 2.7 µM
SMILES: CN(C)CCCN1c2ccccc2CCc2ccccc21 [imipramine]
Plasma levels of imipramine observed in patients [3]: ≤ 300 ng/ml and ≤ 1 μM
